# According to patent US6855730B2, “3-methylidenyl-2-indolinone modulators of protein kinase” (Sugen, Inc., priority 1998, dated 2005):
# Key:
# [1] = test system: SKOV3 cells; experiment: SKOV3 growth assay (2% FBS); type: cell-based; conditions: Homo sapiens, SK-OV-3, read-out: SKOV3 growth (2% FBS) IC50
# [2] = molecular target: EGFR (Homo sapiens, UniProt P00533); experiment: EGFR assay (cellular ELISA, NIH 3T3/C7 cells); type: cell-based; parameters: expressed in transfected cells; host or cells: NIH 3T3/C7; conditions: read-out: cell EGF IC50
# Procedure: EGF Receptor kinase activity in cells genetically engineered to express human EGF-R can be measured as described below:
# Materials and Reagents. • a. […] 05-101 (UBI) (a monoclonal antibody recognizing an EGFR extracellular domain). • c. Anti-phosphotyosine antibody (anti-Ptyr) (polyclonal). • d. Detection antibody: Goat anti-rabbit IgG horse radish peroxidase conjugate, TAGO, Inc. Burlingame, Calif. • e. TBST buffer:
# • Keep solution in dark at 4° C. until used. • h. Stock reagents of:
# Pre-coat ELISA Plate • 1. […] Coated plates are good for up to 10 days when stored at 4° C. • 2. On day-of use, remove coating buffer and replace with blocking buffer (5% Carnation Instant NonFat Dry Milk in PBS). Incubate the plate, shaking, at room temperature (about 23° C. to 25° C.) for 30 minutes. Just prior to use, remove blocking buffer and wash plate 4 times with TBST buffer.
# Seeding Cells • 1. […] Choose dishes having 80-90% confluence for the experiment. Trypsinize cells and stop reaction by adding 10% CS DMEM medium. Suspend cells in DMEM medium (10% CS DMEM medium) and centrifuge once at 1000 rpm at room temperature for 5 minutes. • 3. Resuspend cells in seeding medium (DMEM, 0.5% bovine serum), and count the cells using trypan blue. Viability above 90% is acceptable. Seed cells in DMEM medium (0.5% bovine serum) at a density of 10,000 cells per well, 100 μl per well, in a 96 well microtiter plate. Incubate seeded cells in 5% CO2 at 37° C. for about 40 hours.
# Assay Procedures. • 1. Check seeded cells for contamination using an inverted microscope. Dilute test compounds stock (10 mg/ml in DMSO) 1:10 in DMEM medium, then transfer 5 μl to a test well for a test compounds drug dilution of 1:200 and a final DMSO concentration of 1%. Control wells receive DMSO alone. Incubate in 5% CO2 at 37° C. for one hour. • 2. Prepare EGF ligand: dilute stock EGF in DMEM so that upon transfer of 10 μl dilute EGF (1:12 dilution), 25 nM final concentration is attained. • 3. Prepare fresh 10 ml HNTG* sufficient for 100 μl per well wherein HNTG* comprises: HNTG stock (2.0 ml), milli-Q H2O (7.3 ml), EDTA, 100 mM, pH 7.0 (0.5 ml), Na3VO4 0.5 M (0.1 ml) and Na4(P2O7), 0.2 M (0.1 ml). • 4. Place on ice. • 5. After two hours incubation with drug, add prepared EGF ligand to cells, 10 μl per well, to yield a final concentration of 25 nM. Control wells receive DMEM alone. Incubate, shaking, at room temperature, for 5 minutes. • 6. Remove test compound, EGF, and DMEM. Wash cells twice with PBS. Transfer HNTG* to cells, 100 μl per well. Place on ice for 5 minutes. Meanwhile, remove blocking buffer from other ELISA plate and wash with TBST as described above. • 7. With a pipette tip securely fitted to a micropipettor, scrape cells from plate and homogenize cell material by repeatedly aspirating and dispensing the HNTG* lysis buffer. Transfer lysate to a coated, blocked, and washed ELISA plate. Incubate shaking at room temperature for one hour. • 8. Remove lysate and wash 4 times with TBST. Transfer freshly diluted anti-Ptyr antibody to ELISA plate at 100 μl per well. Incubate shaking at room temperature for 30 minutes in the presence of the anti-Ptyr antiserum (1:3000 dilution in TBST). • 9. Remove the anti-Ptyr antibody and wash 4 times with TBST. Transfer the freshly diluted TAGO 30 anti-rabbit IgG antibody to the ELISA plate at 100 μl per well. Incubate shaking at room temperature for 30 minutes (anti-rabbit IgG antibody: 1:3000 dilution in TBST). • 10. Remove detection antibody and wash 4 times with TBST. Transfer freshly prepared ABTS/H2O2 solution to ELISA plate, 100 μl per well. Incubate at room temperature for 20 minutes. ABTS/H2O2 solution: 1.2 μl 30% H2O2 in 10 ml ABTS stock. • 11. Stop reaction by adding 50 μl 5N H2SO4 (optional), and determine O.D. at 410 nm. • 12. The maximal phosphotyrosine signal is determined by subtracting the value of the negative controls from the positive controls. […]
# Sequence of EGFR (P00533 25-1210): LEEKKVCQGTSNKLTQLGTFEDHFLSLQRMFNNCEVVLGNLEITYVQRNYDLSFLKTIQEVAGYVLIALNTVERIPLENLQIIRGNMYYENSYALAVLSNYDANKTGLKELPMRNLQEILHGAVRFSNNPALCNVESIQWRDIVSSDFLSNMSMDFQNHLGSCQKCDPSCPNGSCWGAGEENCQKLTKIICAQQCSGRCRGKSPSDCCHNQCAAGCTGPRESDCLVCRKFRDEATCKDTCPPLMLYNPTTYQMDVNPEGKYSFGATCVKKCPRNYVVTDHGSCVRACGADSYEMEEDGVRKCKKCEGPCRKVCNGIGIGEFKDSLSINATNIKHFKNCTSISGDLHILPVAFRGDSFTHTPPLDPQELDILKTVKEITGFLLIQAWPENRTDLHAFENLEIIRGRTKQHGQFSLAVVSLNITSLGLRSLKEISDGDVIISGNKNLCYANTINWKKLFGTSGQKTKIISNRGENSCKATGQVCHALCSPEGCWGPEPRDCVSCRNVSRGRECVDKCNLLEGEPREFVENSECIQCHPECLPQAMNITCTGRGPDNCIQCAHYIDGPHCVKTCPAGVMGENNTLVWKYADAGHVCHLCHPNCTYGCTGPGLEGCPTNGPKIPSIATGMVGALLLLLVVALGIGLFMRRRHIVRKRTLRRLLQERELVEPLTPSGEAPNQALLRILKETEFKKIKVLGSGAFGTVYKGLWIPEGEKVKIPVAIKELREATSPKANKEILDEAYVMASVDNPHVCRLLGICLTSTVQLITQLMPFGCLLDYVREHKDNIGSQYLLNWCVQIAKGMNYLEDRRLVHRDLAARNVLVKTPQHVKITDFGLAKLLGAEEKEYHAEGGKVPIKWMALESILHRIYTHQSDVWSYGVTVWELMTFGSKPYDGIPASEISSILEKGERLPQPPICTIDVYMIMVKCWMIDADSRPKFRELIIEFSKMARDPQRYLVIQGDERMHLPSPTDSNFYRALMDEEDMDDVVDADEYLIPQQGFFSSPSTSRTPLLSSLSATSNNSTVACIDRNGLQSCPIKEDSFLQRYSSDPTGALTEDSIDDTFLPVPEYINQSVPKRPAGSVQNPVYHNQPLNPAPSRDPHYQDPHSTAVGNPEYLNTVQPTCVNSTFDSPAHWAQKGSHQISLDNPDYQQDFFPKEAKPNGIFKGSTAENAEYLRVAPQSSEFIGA
Compound,IC50 [1] [µM],IC50 [2] [µM]
"COc1ccc(C=C2C(=O)Nc3cc(NC(C)=O)ccc32)cc1-c1cccc(NC(C)=O)c1 (mixture of isomers) [Example 63, N-[3-(3′-Acetylamino-6-methoxybiphenyl-3-ylmethylene)-2-oxo-2,3-dihydro-1H-indol-6-yl]-acetamide]",> 25,> 100
"CC1(C)CCc2cc(C=C3C(=O)Nc4ccc(Br)cc43)ccc2O1 (racemic) [Example 34, 5-Bromo-3-(2,2-dimethylchroman-6-ylmethylene)-1,3-dihydroindol-2-one]",7.6,38.2
"COc1c(C(C)C)cc(/C=C2/C(=O)Nc3cc(NC(C)=O)ccc32)cc1C(C)C [Example 3, N-[3-(3,5-Diisopropyl-4-methoxybenzylidene)-2-oxo-2,3-dihydro-1H-indol-6-yl]-acetamide]",2.6,–
"COc1c(C(C)C)cc(/C=C2/C(=O)Nc3cc(O)ccc32)cc1C(C)C [Example 4, 3-(3,5-Diisopropyl-4-methoxybenzylidene)-6-hydroxy-1,3-dihydroindol-2-one]",7,20.1
"COc1c(C(C)C)cc(/C=C2/C(=O)Nc3ccc(C(C)=O)cc32)cc1C(C)C [Example 5, 5-Acetyl-3-(3,5-diisopropyl-4-methoxybenzylidene)-1,3dihydroindol-2-one]",5.4,21.5
"COC(=O)c1ccc2c(c1)/C(=C\c1cc(C(C)C)c(OC)c(C(C)C)c1)C(=O)N2 [Example 6, 3-(3,5-Diisopropyl-4-methoxybenzylidene)-2-oxo-2,3-dihydro-1H-indole-5-carboxylic acid methyl ester]",19.4,40.5
"COc1ccc(/C=C2/C(=O)Nc3ccccc32)cc1C(C)C [Example 7, 3-(3-Isopropyl-4-methoxybenzylidene)-1,3-dihydroindol-2-one]",2.5,40.4
"COc1cc(C)c(C=C2C(=O)Nc3ccccc32)cc1C(C)C [Example 8, 3-(5-Isopropyl-4-methoxy-2-methylbenzylidene)-1,3-dihydroindol-2-one]",0.96,43.7
"COc1cc(C)c(C=C2C(=O)Nc3ccc(Cl)cc32)cc1C(C)C [Example 9, 5-Chloro-3-(5-isopropyl-4-methoxy-2-methylbenzylidene)-1,3-dihydroindol-2-one]",14.5,34.6
"COc1ccc(/C=C2/C(=O)Nc3ccccc32)cc1C1CCCC1 [Example 10, 3-(3-Cyclopentyl-4-methoxybenzylidene)-1,3-dihydroindol-2-one]",11.2,56.1
"COc1ccc(/C=C2/C(=O)Nc3ccc(F)cc32)cc1C1CCCC1 [Example 11, 3-(3-Cyclopentyl-4-methoxybenzylidene)-5-fluoro-1,3-dihydroindol-2-one]",15,72.9
"COc1ccc(/C=C2/C(=O)Nc3ccccc32)cc1C1CCCCC1 [Example 12, 3-(3-Cyclohexyl-4-methoxybenzylidene)-1,3-dihydroindol-2-one]",10.1,71.9
"COc1ccc(/C=C2/C(=O)Nc3ccc(Br)cc32)cc1-c1ccccc1 [Example 13, 5-Bromo-3-(6-methoxybiphenyl-3-ylmethylene)-1,3-dihydroindol-2-one]",21.3,30.8
"CC1(C)CCc2cc(/C=C3/C(=O)Nc4ccc(Cl)cc43)ccc2O1 [Example 15, 5-Chloro-3-(2,2-dimethyl-chroman-6-ylmethylene)-1,3-dihydroindol-2-one]",7,46.5
"CC(=O)Nc1ccc2c(c1)NC(=O)/C2=C/c1ccc(OCCN2CCOCC2)c(C2CCCCC2)c1 [Example 16, N-{3-[3-Cyclohexyl-4-(2-morpholin-4-ylethoxy)-benzylidene]-2-oxo-2,3-dihydro-1H-indol-6-yl}-acetamide]",5.9,44.5
"COc1ccc2c(c1)/C(=C\c1cc(C(C)C)c(OC)c(C(C)C)c1)C(=O)N2 [Example 17, 3-(3,5-Diisopropyl-4-methoxybenzylidene)-5-methoxy-1,3-dihydroindol-2-one]",6.1,68
"COc1ccc(/C=C2/C(=O)Nc3cc(NC(C)=O)ccc32)cc1-c1ccsc1 [Example 18, N-[3-(4-Methoxy-3-thiophene-3-ylbenzylidene)-2-oxo-2,3-dihydro-1H-indol-6-yl]-acetamide]",1,> 100
"COc1c(C(C)C)cc(/C=C2/C(=O)Nc3ccc(C)cc32)cc1C(C)C [Example 19, 3-(3,5-Diisopropyl-4-methoxybenzylidene)-5-methyl-1,3-dihydroindol-2-one]",5.9,34.8
"COc1c(C(C)C)cc(/C=C2/C(=O)Nc3ccc(N)cc32)cc1C(C)C [Example 20, 5-Amino-3-(3,5-diisopropyl-4-methoxy-benzylidene)-1,3-dihydroindol-2-one]",35.5,78.1
"COc1c(C)cc(/C=C2/C(=O)Nc3ccc(Cl)cc32)cc1C [Example 21, 5-Chloro-3-(4-methoxy-3,5-dimethylbenzylidene)-1,3-dihydroindol-2-one]",13,18.5
"CC1(C)CCc2cc(/C=C3/C(=O)Nc4ccc(F)cc43)ccc2O1 [Example 23, 3-(2,2-Dimethylchroman-6-ylmethylene)-5-fluoro-1,3-dihydroindol-2-one]",17.8,37.7
"CC(C)c1cc(/C=C2/C(=O)Nc3ccc(Cl)cc32)cc(C(C)C)c1OCCN1CCOCC1 [Example 24, 5-chloro-3-[3,5-diisopropyl-4-(2-morpholin-4-ylethoxy)-benzylidene]-1,3-dihydroindol-2-one]",6.5,38.5
"COc1ccc(/C=C2/C(=O)Nc3ccc(CCN4CCOCC4)cc32)cc1-c1ccsc1 [Example 26, 3-(4-Methoxy-3-thiophen-3-ylbenzylidene)-5-(2-morpholin-4-yl-ethyl)-1,3-dihydroindol-2-one]",5.4,94
"CCOC(=O)c1c(C)[nH]c(/C=C2\C(=O)Nc3cc(-c4ccccc4OC)ccc32)c1CCC(=O)O [Example 110, 4-(2-Carboxyethyl)-5-[6-(2-methoxyphenyl)-2-oxo-1,2-dihydro-indol-3-ylidenemethyl]-2-methyl-1H-pyrrol-3-yl-carboxylic acid ethyl ester]",–,> 100
"Cc1cc(CCC(=O)O)c(/C=C2\C(=O)Nc3ccc(Cl)cc32)[nH]1 [Example 111, 3-[2-(5-Chloro-2-oxo-1,2-dihydroindol-3-ylidenemethyl)-5-methyl-1H-pyrrol-3-yl]propionic acid]",–,> 100
"O=C1Nc2ccc(Br)cc2/C1=C/c1cc2ccccc2[nH]1 [Example 165, 5-Bromo-3-(1H-indol-2-ylmethylene)-1,3-dihydro-indol-2-one]",–,> 100
"Cc1cccc2c1/C(=C/c1cc3ccccc3[nH]1)C(=O)N2 [Example 166, 3-(1H-indol-2-ylmethylene)-4-methyl-1,3-dihydro-indol-2-one]",–,> 100
